In US5457092A, “Methods of promoting bone growth in mammals comprising administration of modified parathyroid hormone” (Gesellschaft fur Biotechnologische Forschung mbH (GBF), priority 1987, dated 1995):
Like-named read-outs stand apart in the source and are kept apart here.

Key:
renal PTH receptor = conditions: Adv. Protein Chemistry 35 (1982) 323 ff. (Potts et al.); cited from earlier work
[1] = system: osteoblast enriched rat embryo calvaria cell cultures; assay: DNA synthesis ([3H]thymidine incorporation) in rat embryo calvaria cell cultures; assay type: cell-based; conditions: for [3H)Thymidine incorporation, effect of fragment (experimental value/control value): 100 nM, 24 h, control 624 ± 73 c.p.m./μg of DNA
Method in brief: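 Cultures stimulated with bPTH (1-84); [3H]thymidine incorporation into DNA measured 24 h after stimulation. Values are means ±S.E.M., N≥5, compared with controls by Student's t test.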

[2] = system: rat organs (epiphysis, diaphysis, kidney); assay: CK specific activity in rat organs after i.p. injection; assay type: in vivo; conditions: for CK specific activity, Kidney / CK specific activity, Epiphysis / CK specific activity, Diaphysis: rat; for CK specific activity, Kidney: control 1.43 ± 0.20; for CK specific activity, Epiphysis: control 15.0 ± 2.2; for CK specific activity, Diaphysis: control 26.0 ± 3.,9; for effect on CK activity in rat organs (in words): 0.875 μg/rat
Description: FIG. 13 is a graph showing the time-dependent stimulation by hPTH (28-48) of CK specific activity in rat organs. Female rats (20-25 days old) were injected i.p. with hPTH-(28-48) (1.25 μg/rat). Experimental details are as described for FIG. 10. (a) Diaphysis, (b) epiphysis, (c) kidney. *P<0.05, **P<0.01 versus controls.
FIG. 14 is a graph showing the dose-dependent stimulation of CK specific activity by hPTH (1-34) in rat organs. Female rats (20-25 days old) were injected i.p. with hPTH-(1-34). At 4 h later, rats were killed and extracts were prepared and assayed as described below. Experimental details are as described for FIG. 10 (a) Diaphysis, (b) epiphysis, (c) kidney. *P<0.05, ** P<0.01 versus controls.
FIG. 15 is a graph showing the dose-dependent stimulation of CK specific activity by hPTH (28-48) in rat organs. Female rats (20-25 days old) were injected i.p. with hPTH-(28-48). Experimental details are as described for FIG. 13 (a) Diaphysis, (b) epiphysis, (c) kidney. *P<0.05, **P<0.01 versus controls.
FIG. 16 is a graph showing the […] stimulation by bPTH (1-84) of CK specific activity in rat organs. Female rats (20-25 days old) were injected i.p. with bPTH-(1-84) (3.5 μg/rat). At the times indicated, the rats were killed and the diaphyses (a) and epiphyses (b) of long bones as well as the kidneys (c) were collected and homogenized. Extracts were prepared and assayed as described below. Results are means ±S.E.M for π=5. Statistical significance of differences between treated and control groups by Student's T test: *P<0.05; **P<0.01. Note that the activity scales differ for different organs.
Kidneys, tibia and femur were excised; the epiphyses or diaphyses of the long bones were collected and washed thoroughly with cold 0.9% NaCl. The bones were split open lengthwise and the marrow was scraped out. Organs were homogenized in ice-cold buffer containing 50 mM-Tris/HCl (pH 6.8), 5 mH-magnesium acetate. 2.5 mM-dithiothreitol, 0.4 mM-EDTA and 250 mM-sucrose using a Polytron homogenizer in 10 s bursts with intervening cooling periods. Supernatant extracts were obtained by centrifugation at 12000 g for 5 min at 4° C. CK activity was measured at 30° C. in a Gilford 250 automatic recording spectrophotometer at 340 nm using a coupled assay for ATP, in 0.5 ml of incubation mixture containing 50 mM-imidazole acetate buffer (pH 6.7), 25 mM-phosphocreatine, 20 mM-N-acetylcysteine, 20 mM-D-glucose, 10 mM-magnesium acetate, 5 mM-EDTA, 2 mM-ADP, 2 mM-NAD+, 2 mM-dithiothreitol, 50 μM-diadenosine pentaphosphate (adenylate kinase inhibitor), 5 μg of bovine serum albumin. 1.2 units of glucose-6-phosphate dehydrogenase and 0.8 units of hexokinase. Protein was determined by the Coomassie Brilliant Blue dye-binding method, with bovine serum albumin as the standard.

[3] = system: osteoblast enriched rat embryo calvaria cell cultures; assay: Cyclic AMP production in rat embryo calvaria cell cultures; assay type: cell-based; conditions: 100 nM; 15 min; control 29 ± 2.9 pmol/mg of protein
Method in brief: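 Osteoblast-enriched rat embryo calvaria cultures stimulated with PTH fragments from the central portion of the molecule. Cyclic AMP measured 15 min after stimulation; CK specific activity measured 24 h after stimulation. Values are means ±S.E.M., N≥5, compared with controls by Student's T test.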

ROS 17/2.8 cells = assay: Inhibition of bPTH(1-34)-stimulated cAMP synthesis of intact ROS 17/2.8 cells; assay type: cell-based, rat; conditions: 30 nM hPTH(28-48) added to 100 nM bPTH(1-34); 1 mM IBMX; 10 min
Description: FIG. 9 is a graphical representation showing the cAMP yields [nitrogenic effect of bPTH (1-34].
100 nM bPTH(1-34) were used to stimulate cAMP synthesis of intact ROS 17/2.8 cells (cell density 1.3×10^6 cells/cm^2) in the presence of 1 mM IBMX for 10 min. cAMP yields were determined by radio assay. Based on the conditions mentioned, the cAMP basal value of non-stimulated cells corresponds to 8 pmol/well. This effect of bPTH(1-34) can be inhibited by an additional doses of 30 nM hPTH(28-48) up to about 50%; cf. FIG. 9.

renal adenylate cyclase = conditions: Adv. Protein Chemistry 35 (1982) 323 ff. (Potts et al.), cited from earlier work
[4] = 4 h after injection of 0.875 μg

## hPTH(28-48): mid-regional PTH fragment 28-48, human source (LQDVHNFVALGAPLAPRDAGS; Parathyroid hormone; UniProt P01270 59-79, looked up, fragment)
Renal PTH receptor
  binding to the renal PTH receptor: does not bind to the renal PTH receptor
[1]
  stimulation of DNA synthesis (in words): maximal
  [3H)Thymidine incorporation, effect of fragment (experimental value/control value): 2.82 ± 0.18
[2]; 1.25 μg/rat i.p.
  time of maximal increase of CK activity, diaphysis: 1 h
  time of maximal increase of CK activity, epiphysis: 4 h
[2]; 1.25 μg/rat i.p., equivalent to 14 nM
  effect on CK activity after injection (in words): increased CK activity
[2]; 1.25 μg/rat i.p., 1, 4 and 24 h
  CK activity in diaphysis over time (in words): significantly increased at all three times measured
[2]; 1.25 μg/rat i.p., 1 h
  CK activity in epiphysis at 1 h (in words): significant increase
[2]; 1.25 μg/rat i.p., 24 h
  CK activity in epiphysis at 24 h (in words): no significant increase
  CK specific activity in kidney at 24 h (in words): declined to close to the constitutive activity
[2]; 1.25 μg/rat, 4 h later
  stimulation of CK specific activity in diaphysis at the dose of maximum effect: approx. 3 fold
[2]; i.p., 4 h later
  dose of maximal effect on CK specific activity: 1.25 μg/rat
[2]; i.p., 4 h later, diaphysis, epiphysis, kidney
  dose giving a significant increase in CK specific activity in all organs: 0.15 μg/rat
[2]; 4 h after injection of 1.25 μg
  CK specific activity, Kidney: 2.26 ± 0.34 μmol/min per mg of protein
  CK specific activity, Epiphysis: 20.9 ± 3.0 μmol/min per mg of protein
  CK specific activity, Diaphysis: 37.2 ± 3.3 μmol/min per mg of protein
[3]
  Cyclic AMP concentration, effect of fragment (experimental value/control value): 1.22 ± 0.09
ROS 17/2.8 cells
  inhibition of the cAMP synthesis stimulated by bPTH(1-34): about 50%
Renal adenylate cyclase
  stimulation of renal adenylate cyclase: does not stimulate renal adenylate cyclase
Renal adenylate cyclase; listed as hPTh(28-48)
  stimulation of renal adenylate cyclase: will not stimulate renal adenylate cyclase

## hPTH(34-47): PTH fragment 34-47, human source; comparative example (FVALGAPLAPRDAG; Parathyroid hormone; UniProt P01270 65-78, looked up, fragment) [reference compound]
[2]; equivalent to 14 nM
  effect on CK activity in rat organs (in words): no effect
[2]; [4]
  CK specific activity, Kidney: 1.64 ± 0.32 μmol/min per mg of protein
  CK specific activity, Epiphysis: 16.7 ± 2.5 μmol/min per mg of protein
  CK specific activity, Diaphysis: 24.9 ± 4.8 μmol/min per mg of protein

## hPTH(25-39): PTH fragment 25-39, human source (RKKLQDVHNFVALGA; Parathyroid hormone; UniProt P01270 56-70, looked up, fragment)
[1]
  stimulation of DNA synthesis (in words): maximal
  [3H)Thymidine incorporation, effect of fragment (experimental value/control value): 2.96 ± 0.18
[2]; equivalent to 14 nM
  effect on CK activity in rat organs (in words): significant increase
[2]; [4]
  CK specific activity, Kidney: 3.22 ± 0.78 μmol/min per mg of protein
  CK specific activity, Epiphysis: 24.0 ± 3.2 μmol/min per mg of protein
  CK specific activity, Diaphysis: 41.8 ± 4.9 μmol/min per mg of protein
[3]
  Cyclic AMP concentration, effect of fragment (experimental value/control value): 0.87 ± 0.30
